The structures appear in SMILES notation.

Series [1] concerns blood-brain barrier (BBB). The experiment in a line: Reversibility of effect of M 3/14 on BBB permeability (Evan's Blue absorbance of brain extract). It is filed as in vivo, rat (male Sprague-Dawley). As to conditions: for Quantity EB: 620 nm, per gram wet weight. How it is done:
The experiments were carried out on male Sprague-Dawley rats weighing 250-320 gr. They were anesthetized with Rampun-Imalgen. The right common carotid artery was exposed.
The test compounds were dissolved in 0.1M phosphate buffered physiological saline (pH=7.4) at the following test concentrations: 1.6; 8; 20; 40; 200 and 1000 μg/ml. […] The resulting pH of the test solutions was in the range of 8.0 to 8.5, and contols for the pH effect were performed up to pH 9.
The test compound was infused into the right common carotid artery at a rate of 6 ml/min. for 30 s. The control rats were infused with buffer. Evan's Blue (EB) solution at a concentration of […] (2 g Evan's Blue, 0.9 g NaCl in 100 ml water) was injected intravenously 50 minutes prior to the termination of the experiment.
At the end of the experimental time period the animals were perfused with 100 ml of saline solution through the heart and decapitated. The degree of BBB opening, in terms of extravasation of Evan's Blue albumin, was graded on the basis of visual assessment of the degree of staining of the brain ato the method of Rapoport et al. (Rapoport et al., 1980, Amer. J. Physiol. 258, 421-431), and the results are presented in Tables 1 and 2.
A second set of experiments was designed to determine whether the BBB disruption is reversible or irreversible after M 3/14 injection. The extravasation of Evan's Blue-albumin was evaluated at different time points between 3 h and 72 h after M 3/14 injection in concentrations of 8 and 20 μg/ml.
The experiment was conducted on an average of three individual animals per dose per time point. The brains were removed and extracted in dimethylformamide for […]. at room temp. The extract was centrifuged and the supernatant collected and measured for absorbance at 620 nm. The results are presented per gram wet weight of the tissue.

Series [2] relates to rat brain. The experiment in a line: Water concentration in the rat brain after intra-arterial administration (cerebral edema). It is filed as in vivo. As to conditions: 20 μg/ml, 24 h. How it is done: The rats were treated by intraarterial infusion of M 3/14 20 μg/ml or phosphate buffered saline as control. After 24 hours the rats were decapitated, the brain was removed and dried at 110° C. until constant weight was achieved (normally three days). The percent water was calculated by the following equation:
% water=(wet sample weight-dry sample weight)×100/(wet sample weight)
This procedure is according to Karpiak and Mahadik (1984, J. Neurosci. Res. 12, 485-492).

Series [3] concerns bovine brain capillary endothelial cells in co-culture with astrocytes. The experiment in a line: Paracellular permeability (inulin and sucrose clearance), in vitro coculture model of the BBB. It is filed as cell-based. An excerpt:
The alterations in barrier function on bovine brain capillary endothelial cells in co-culture were investigated. To provide an "in vitro" system for studying brain capillary functions, a process of coculture was used that closely mimics the "in vivo" situation by culturing brain capillary endothelial cells on one side of a filter and astrocytes on the other (Dehouck, et al. (1992) J. Neurochemistry 58:1790-1797). Endothelial cells form a confluent monolayer in 12 days.
Endothelial cells are cultured in the upper compartment on the filter and astrocytes in the lower compartment on the plastic of the Petri dish.
Under these conditions, endothelial cells retain all the endothelial markers (factor VIII--related antigen, nonthrombogenic surface, production of prostacyclin, angiotensin converting enzyme activity) and the characteristics of the blood-brain barrier (presence of tight junctions, paucity of pinocytotic vesicles, monoamine oxidase activity, γ-glutamyltranspeptidase activity).
Two different time points were tested, namely 1 hr and 24 hrs of incubation with DP-BFA, and five different concentrations per time point: 0.04; 0.08; 0.16; 0.24; 0.32 mg/ml corresponding to 0.125; 0.25; 0.5; 0.75; 1×10^-3 M.
DP-BFA is stored in a hermetically sealed dark vial filled with Argon at 5° C. for up to 3 months. The drug quantity was taken out the vial cap with a Teflon spatula. The compound was dissolved in sodium carbonate-sodium bicarbonate buffered saline solution adjusted to pH 8.8-9 at 37° C. A stock solution (12.8 mg/ml) was prepared and kept at 37° C. for 15 minutes. The solution was protected from light by covering it with aluminium foil. […] The desired concentration of DP-BFA was obtained by diluting the stock solution with the buffer. The solutions were filtered through a […] filter. The DP-BFA solutions were kept at 37° C. in vials protected from light, for no more than 6 hours.
Stock solution of DP-BFA was added directly to the coculture medium (upper compartment) in order to obtain a dilution of 1:40.
Permeability studies were carried out on the monolayer of endothelial cells, using two paracellular tracers: inulin-^3 H and sucrose-^14C.
To obtain a concentration-dependent transport parameter, the clearance principle was used. For each time, the increment in cleared volume between successive sampling events was calculated by dividing the amount of transported solute by the donor chamber concentration. The total volume cleared at each point was calculated by summing the incremental cleared volumes up to the given time point: [formula]
where [C]L is the initial luminal tracer concentration, [C]A the abluminal tracer concentration, and VA the volume of the abluminal chamber. During the 45-mim experiment, the clearance volume increased linearly with time. The average volume cleared was plotted versus time, and the slope was estimated by linear regression analysis to give the mean and the SE to the estimate. The slope of the clearance curves for the coculture was denoted PSt, where PS is the permeability x surface area product (in microliters per minute). The slope of the clearance curve for the control filter was denoted PSf.
The PS value for the endothelial monolayer (PSe) was calculated from [formula]
The PSe values were divided by the surface area of the Millicell-PC (4.2 cm^2) to generate the endothelial permeability coefficient (Pe, in centimeters per minute).
In that case, the results are presented as clearance (μl) in function of time (min) and clearance at 45 minutes for each condition.

For series [4], the system named is ipsilateral hemisphere of the brain. The experiment in a line: Methotrexate content of brains of rats pretreated with M3,14 (DP-BFA). It is filed as in vivo, rat. Particulars: intra-arterial pre-treatment, carotid artery.
Setting [5] is: 0.08 mg/ml, 24 hours incubation.

For `CCCCCCCCCCCCCCC(CCC)C(=O)O` (stereo not drawn) [M 3/14, 2-propylhexadecanoic acid], the “Quantity EB” value in series [1] (8 μg/ml, 3 h) was found to be 0.087 absorbance units; in series [1] (8 μg/ml, 24 h) it was 0.074 absorbance units; in series [1] (20 μg/ml, 3 h), 0.129 absorbance units; in series [1] (20 μg/ml, 24 h), 0.129 absorbance units; in series [1] (20 μg/ml, 72 h), 0.015 absorbance units. Further, the “duration of effect on BBB permeability” value in series [1] (depending on the dose used (8 and 20 μg/ml)) was “exceed 24 hours”. Further, the cerebral edema result in series [2] is given as “no cerebral edema effect”. For the same compound, in series [2], the “water content of brain, treated vs non treated rats” value was “no significant difference”. In addition, in series [2] (intra-arterial), the Brain weight was 1.494 g. The “Brain weight after drying” value in series [2] (intra-arterial) is 0.311 g. The compound further registered a Water in series [2] (intra-arterial) of 79.19%. In addition, the “increase in permeability of the monolayer for inulin (clearance at 45 minutes)” value is 179% in series [3] (setting [5]) and 636% in series [3] (0.16 mg/ml, 1 hour incubation). For the same compound, the “increase in permeability of the monolayer for sucrose (clearance at 45 minutes)” value turned out to be 199% in series [3] (setting [5]) and 679% in series [3] (0.16 mg/ml, 1 hour incubation). Further, the “paracellular breakdown (opening of the tight junctions)” value is “paracellular breakdown (opening of the tight junctions)” in series [3] (0.08 mg/ml, 24 hrs) and “paracellular breakdown (opening of the tight junctions)” in series [3] (0.16 mg/ml, 1 hr). For the same compound, in series [4], the “penetration of MTX into the ipsilateral hemisphere” value is recorded as “significantly increased the penetration of MTX”.

The record behind these values is patent US6319952A, “Compositions and methods for reversibly increasing permeability of biomembranes” (D-Pharm Ltd., priority 1997, dated 2001).
